IC50 data for 71 compounds are collected here from US20240254089A1, “MODULATORS OF MAS-RELATED G-PROTEIN RECEPTOR X4 AND RELATED PRODUCTS AND METHODS” (ESCIENT PHARMACEUTICALS, INC., priority 2020, published 2024).

Where two headings read alike, the source gives them in different places. A value given as a limit tells only on which side of the number the result lay.

The target of the experiment is T1, human MRGPR X4 (Homo sapiens, UniProt Q96LA9).
T1 construct: expressed in transfected cells
Put plainly: MRGPR X4 antagonist activity, IP-One Gq HTRF assay in stably transfected HEK cells. It is filed as cell-based. Put shortly:
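IC50 comes from HTRF IP-1 accumulation in stably transfected HEK cells expressing human MRGPR X4. Compounds (10 uM top, 1:3 serial, 10 points) were co-incubated with 10 μM bilirubin, 20 μM deoxycholic acid or 100 μM conjugated bilirubin in LiCl-containing buffer, pH 8, for 1 h at 37 °C plus 30 min at room temperature.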

The mark [1] stands for this setting: versus 20 μM deoxycholic acid agonist, HEK cells expressing human MRGPR X4, read-out: MRGPRX4 Antagonist Activity.

T1 sequence (Q96LA9 whole entry): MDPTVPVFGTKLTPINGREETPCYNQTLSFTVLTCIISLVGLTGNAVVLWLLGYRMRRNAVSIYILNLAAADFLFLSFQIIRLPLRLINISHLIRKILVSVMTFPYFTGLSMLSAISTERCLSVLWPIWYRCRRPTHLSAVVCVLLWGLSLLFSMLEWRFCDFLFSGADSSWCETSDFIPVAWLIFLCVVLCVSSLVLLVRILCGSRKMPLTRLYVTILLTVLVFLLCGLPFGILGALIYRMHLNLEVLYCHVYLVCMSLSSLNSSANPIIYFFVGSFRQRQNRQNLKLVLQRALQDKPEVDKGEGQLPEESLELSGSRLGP

As for `COc1cccc(F)c1CNC(=O)c1nn(Cc2ccc(Cl)cc2)c2ccccc12` [Compound 335], the IC50 was over 2500 nM.
Still for that read-out and setting: for `O=C(NCCc1nnc2ccccn12)c1nn(Cc2ccc3ncccc3c2)c2ccccc12` [Compound 458] the value was 501 to 1000 nM.
Same read-out and setting: for `CN(C)c1cccc(Cn2nc(C(=O)NCCc3nnc4ccccn34)c3ccccc32)c1` [Compound 451] the value was 100 to 500 nM.
On the same count and under the same terms, for `Cc1ccc(Cn2cc(C(=O)NCc3ccccn3)c3ccccc32)cc1` [Compound 229] the value was over 2500 nM; for `Cc1cccc(CCn2nc(C(=O)NCCc3nnc4ccccn34)c3ccccc32)c1` [Compound 523], 1000 to 2500 nM.
As for `Cc1nc(S(=O)(=O)NC(=O)c2nn(Cc3ccc(Cl)cc3)c3ccccc23)sc1C` [Compound 271], under setting [1], the IC50 fell in the range of 1000 to 2500 nM.
As to `O=C(NCCc1nnc2ccccn12)c1nn(Cc2ccc(F)cc2)c2ccccc12` [Compound 51], the IC50 is 100 to 500 nM.
As to `O=C(NCCc1nnc2ccccn12)c1nn(CCc2ccc(F)cc2F)c2ccccc12` [Compound 471], the IC50 under setting [1] is over 2500 nM.
With `N#Cc1ccc(Cn2nc(C(=O)NCCc3nnc4ccccn34)c3ccccc32)cc1` [Compound 408], the IC50 was 100 to 500 nM.
In the case of `COc1ccc(S(=O)(=O)NC(=O)c2nn(Cc3ccc(OC(F)F)cc3)c3ccccc23)cc1C` [Compound 275], the IC50 under setting [1] lay in the range of 1000 to 2500 nM.
The compound `COc1ccccc1Cn1cc(C(=O)NCCc2cccnc2)c2ccccc21` [Compound 226] returned an IC50 of over 2500 nM.
Consider `O=C(CCn1nc(C(=O)NCCc2nnc3ccccn23)c2ccccc21)c1ccc(F)cc1` [Compound 443], for which, under setting [1], the IC50 is over 2500 nM.
For `O=C(NCCc1nnc2ccccn12)c1nn(Cc2ccc(Cl)cc2)c2cccc(Br)c12` [Compound 566], the IC50 lay in the range of 100 to 500 nM.
`O=C(NCCc1ccc(=O)[nH]c1)c1cn(Cc2ccc(Cl)cc2)c2ccccc12` [Compound 220] had an IC50 of 1000 to 2500 nM.
For `O=C(NCCc1nnc2ccccn12)c1nn(Cc2cc(-c3ccc4c(c3)OCO4)no2)c2ccccc12` [Compound 500], the IC50 under setting [1] lay within 1000 to 2500 nM.
Take `Cc1cccnc1CCNC(=O)c1nn(Cc2ccc(Cl)cc2)c2ccccc12` [Compound 77]: the IC50 was in the range of 501 to 1000 nM.
The same measure, in the same setting: for `O=C(NCCc1nnc2ccccn12)c1nn(Cc2cccc3c2CCO3)c2ccccc12` [Compound 491] the value was 100 to 500 nM.
The same measure, in the same setting: the figure for `Cc1ccc(Cn2nc(C(=O)NCCc3ncnn3C)c3ccccc32)cc1` [Compound 113] is 1000 to 2500 nM.
Turning to `Cc1cccc(S(=O)(=O)NC(=O)c2nn(Cc3ccc(OC(F)F)cc3)c3ccccc23)c1C` [Compound 282], the IC50 under setting [1] was in the range of 1000 to 2500 nM.
`O=C(NCCNC(=O)c1nn(Cc2ccc(Cl)cc2)c2ccccc12)c1ccccc1` [Compound 400]: the IC50 is 100 to 500 nM.
As for `CS(=O)(=O)c1ccccc1Cn1nc(C(=O)NCCc2nnc3ccccn23)c2ccccc21` [Compound 435], under setting [1], the IC50 was over 2500 nM.
For the compound `O=C(NS(=O)(=O)c1ccccc1OC(F)(F)F)c1nn(Cc2ccc(OC(F)F)cc2)c2ccccc12` [Compound 286], the IC50 under setting [1] lay within 1000 to 2500 nM.
On to `Cc1ccccc1S(=O)(=O)NC(=O)c1cn(Cc2ccc(OC(F)F)cc2)c2ccccc12` [Compound 312, 1-(4-(difluoromethoxy)benzyl)-N-(o-tolylsulfonyl)-1H-indole-3-carboxamide], for which the IC50 under setting [1] lay within 1000 to 2500 nM.
Consider `Cc1ccc(Cn2nc(C(=O)NCCc3noc(C4CC4)n3)c3ccccc32)cc1` [Compound 83], for which the IC50 is 501 to 1000 nM.
`CNCc1cn(CCNC(=O)c2nn(Cc3ccc(Cl)cc3)c3ccccc23)nn1` [Compound 142]: the IC50 under setting [1] is over 2500 nM.
`CS(=O)(=O)c1ccc(CNC(=O)c2nn(Cc3ccc(Cl)cc3)c3ccccc23)cc1` [Compound 378]: the IC50 is over 2500 nM.
On the same count and under the same terms, for `O=C(NCCc1cncnc1)c1nn(Cc2ccc(Cl)cc2)c2ccccc12` [Compound 102] the value was 1000 to 2500 nM; for `Cc1ccc(CNC(=O)c2nn(Cc3ccc(Cl)cc3)c3ccccc23)nn1` [Compound 334], 501 to 1000 nM; for `O=C(NCCc1ccc(Cl)c(F)c1)c1cn(Cc2cccc(F)c2)c2ccccc12` [Compound 210], 1000 to 2500 nM.
Still for that read-out and setting: the figure for `O=C(NCCc1ccc2c(c1)OCO2)c1nn(Cc2ccc(Cl)cc2)c2ccccc12` [Compound 342] is 501 to 1000 nM.
`O=C(NCc1ccc2ccccc2n1)c1nn(Cc2ccc(Cl)cc2)c2ccccc12` [Compound 423]: the IC50 was over 2500 nM.
In the case of `COc1ccccc1CCNC(=O)c1cn(Cc2cccc(F)c2)c2ccccc12` [Compound 221], the IC50 is 1000 to 2500 nM.
`O=C(NCCc1nnc2ccccn12)c1nn(Cc2ccc(Cl)cc2F)c2ccccc12` [Compound 527] returned an IC50 of under 100 nM.
Same read-out and setting: the figure for `O=C(NCCc1nnc2ccccn12)c1nn(Cc2nccc3ccccc23)c2ccccc12` [Compound 454] is 1000 to 2500 nM; for `O=C(NCCn1cc(-c2ccccc2)nn1)c1nn(Cc2ccc(Cl)cc2)c2ccccc12` [Compound 141] it is 501 to 1000 nM; for `COc1cc(CCNC(=O)c2nn(Cc3ccc(Cl)cc3)c3ccccc23)ccc1O` [Compound 366] it is under 100 nM.
Same read-out and setting: for `O=C(NCCc1cccnc1)c1cn(Cc2ccc(OC(F)F)cc2)c2ccccc12` [Compound 166] the value was 100 to 500 nM; for `COc1cc(Cn2nc(C(=O)O)c3ccccc32)ccc1Cl` [Compound 329], over 2500 nM; for `O=C(O)c1nn(Cc2ccc(OC(F)F)cc2)c2ccccc12` [Compound 325], over 2500 nM.
The same measure, in the same setting: the figure for `O=C(CNC(=O)c1nn(Cc2ccc(Cl)cc2)c2ccccc12)NCC(F)(F)F` [Compound 347] is over 2500 nM; for `O=C(NCCc1ccccn1)c1nn(Cc2ccc(Cl)cc2)c2ccccc12` [Compound 23] it is under 100 nM.
Compound `Cc1cccc(CCNC(=O)c2nn(Cc3ccc(Cl)cc3)c3ccccc23)n1` [Compound 55] came in with an IC50 of 100 to 500 nM.
On the same count and under the same terms, for `O=C(NCCc1cccnc1)c1nn(Cc2ccc(OC(F)(F)F)cc2)c2ccccc12` [Compound 136, N-(2-(pyridin-3-yl)ethyl)-1-(4-(trifluoromethoxy)benzyl)-1H-indazole-3-carboxamide] the value was 100 to 500 nM.
The same measure, in the same setting: for `O=C(NCc1ccnnc1)c1nn(Cc2ccc(Cl)cc2)c2ccccc12` [Compound 405] the value was over 2500 nM.
Take `O=C(NCCn1cc(-c2cncnc2)nn1)c1nn(Cc2ccc(Cl)cc2)c2ccccc12` [Compound 145]: the IC50 lay in the range of 501 to 1000 nM.
The same measure, in the same setting: the figure for `Cc1ncccc1CCNC(=O)c1nn(Cc2ccc(Cl)cc2)c2ccccc12` [Compound 44] is 100 to 500 nM; for `COc1cccc(CCNC(=O)c2cn(Cc3ccc(Cl)cc3)c3ccccc23)c1` [Compound 164] it is 100 to 500 nM.
`O=C(NS(=O)(=O)Cc1cccnc1)c1nn(Cc2ccc(Cl)cc2)c2ccccc12` [Compound 310]: the IC50 under setting [1] was over 2500 nM.
As to `Cc1occc1Cn1nc(C(=O)NCCc2nnc3ccccn23)c2ccccc21` [Compound 520], the IC50 was over 2500 nM.
On the same count and under the same terms, the figure for `O=C(NCCc1nnc2n1CCCCC2)c1nn(Cc2ccc(C(F)(F)F)cc2)c2ccccc12` [Compound 5] is under 100 nM.
Still for that read-out and setting: the figure for `O=C(NCc1cnn2ccccc12)c1nn(Cc2ccc(Cl)cc2)c2ccccc12` [Compound 388] is over 2500 nM.
For `Cc1cccc(S(=O)(=O)NC(=O)c2nn(Cc3ccc(OC(F)(F)F)cc3)c3ccccc23)c1` [Compound 272], the IC50 under setting [1] fell in the range of 1000 to 2500 nM.
Consider `CC(C)c1ccc(Cn2nc(C(=O)O)c3ccccc32)cc1` [Compound 323], for which the IC50 was 1000 to 2500 nM.
Same read-out and setting: for `O=C(NCCc1nnc2ccccn12)c1nn(Cc2ccc(Cl)cc2)c2cc(C(F)(F)F)ccc12` [Compound 564] the value was under 100 nM; for `Cc1cccc(CCNC(=O)c2nn(Cc3ccc(Cl)cc3)c3ccccc23)c1` [Compound 362], 1000 to 2500 nM.
Still for that read-out and setting: for `O=C(NCCc1nnc2ccccn12)c1nn(Cc2ccc3cc[nH]c3c2)c2ccccc12` [Compound 556] the value was under 100 nM.
Turning to `Cc1cccc(S(=O)(=O)NC(=O)c2nn(Cc3ccc(F)cc3)c3ccccc23)c1` [Compound 292], the IC50 under setting [1] was 1000 to 2500 nM.
For the compound `CC(C)c1ccc(Cn2nc(C(=O)NCCc3nnc4n3CCCCC4)c3ccccc32)cc1` [Compound 35], the IC50 lay within 100 to 500 nM.
Same read-out and setting: the figure for `Cc1ccc(Cn2nc(C(=O)NCCc3cccnc3)c3c(C#N)cccc32)cc1` [Compound 67] is 100 to 500 nM.
For `O=S(=O)(NCCc1ccc(Cl)c(F)c1)c1cn(Cc2ccc(Cl)cc2)c2ccccc12` [Compound 314], the IC50 under setting [1] is 1000 to 2500 nM.
Regarding `Cc1cnc(CCNC(=O)c2cn(Cc3ccc(Cl)cc3)c3ccccc23)nc1` [Compound 207], the IC50 fell in the range of 1000 to 2500 nM.
Still for that read-out and setting: the figure for `O=C(Nc1ccc2cccnc2c1)c1nn(Cc2ccc(Cl)cc2)c2ccccc12` [Compound 111] is 1000 to 2500 nM.
Take `COc1ccccc1CCCn1nc(C(=O)NCCc2nnc3ccccn23)c2ccccc21` [Compound 506]: the IC50 under setting [1] is over 2500 nM.
`N#Cc1cccc(Cn2nc(C(=O)NCCc3nnc4ccccn34)c3ccccc32)c1` [Compound 446] showed an IC50 of 1000 to 2500 nM.
Regarding `O=C(NS(=O)(=O)c1cccnc1)c1nn(Cc2ccc(Cl)cc2)c2ccccc12` [Compound 304], the IC50 under setting [1] was over 2500 nM.
As to `Cn1ncc2cccc(Cn3nc(C(=O)NCCc4nnc5ccccn45)c4ccccc43)c21` [Compound 460], the IC50 was in the range of 501 to 1000 nM.
Same read-out and setting: for `COc1ccc(CCNC(=O)c2nn(Cc3ccc(Cl)cc3)c3ccccc23)cc1OC` [Compound 343] the value was 501 to 1000 nM.
On to `Cc1cccc(S(=O)(=O)NC(=O)c2nn(Cc3ccc(Cl)cc3)c3ccccc23)c1` [Compound 279], for which, under setting [1], the IC50 fell in the range of 1000 to 2500 nM.
In turn, `O=C(NCc1cncnc1)c1nn(Cc2ccc(Cl)cc2)c2ccccc12` [Compound 375] had an IC50 of over 2500 nM.
With `O=C(NCCc1cccc(F)c1)c1cn(Cc2cccc(F)c2)c2ccccc12` [Compound 199], the IC50 fell in the range of 501 to 1000 nM.
Still for that read-out and setting: the figure for `O=C(O)c1nn(Cc2ccc(Cl)c(Cl)c2)c2ccccc12` [Compound 318] is 1000 to 2500 nM.
